The nature of the data set: solubility of the reactive azo compounds in toluene (weight percent solubility). The format is physicochemical. The following applies: for WPS (weight percent solubility in toluene): heated to boil, cooled to room temperature, filtered (0.45 μm), dry residue mass / filtrate mass; for solubility in toluene relative to compounds of similar structure (in words): comparison of methyl ester comparative compounds with the yellow azo compounds of the invention. As for the experimental part:
The solubilites of the reactive azo compounds of Examples 1, 2, 3 and 4 and Comparative Examples 1, 2 and 3 (C-1, C-2 and C-3) in toluene were determined according to the following procedures: A sample (0.2 g) of each compound was added to a screw top vial followed by the addition of toluene (0.5 mL for each vial containing the reactive azo compound of Examples 1, 3, 4 or C-3; 1.0 mL for Examples 2 or C-1; 1.5 mL for Example C-2. Each vial was capped and heated until the solution or mixture began to boil. Each solution or mixture then was allowed to cool to room temperature. Various amounts of toluene were required to give a filterable solution or suspension upon cooling. The solutions or suspensions of the azo compounds were filtered (0.45 μm nylon membrane with glass microfiber prefilter, Autovial®, Whatman Inc.) to give homogenous solutions (filtrates). Each filtered solution was weighed and the toluene solvent was removed under reduced pressure to give the mass of dry residue of each azo compound dissolved in the toluene solvent. The weight percent solubility of each azo compound is defined as [formula]
wherein WPS is the weight percent solubility for each azo compound in toluene and Dry Azo Compound Residue and Toluene Solution Filtrate are produced as described above. The results of the toluene solubility evaluations are shown in Table II wherein Azo compound refers to the example in which the reactive azo compound and its preparation is described.

As for `C=C(C)c1cccc(C(C)(C)NC(=O)OCCn2c(O)c(/N=N/c3ccccc3C(=O)OCC(CC)CCCC)c(C)c(C#N)c2=O)c1` (stereo not shown) [Example 1], the “WPS (weight percent solubility in toluene)” value turned out to be 37.5 weight percent.
Still for that read-out and setting: as for `C=C(C)C(=O)OCCn1c(O)c(/N=N/c2ccccc2C(=O)OCC(C)C)c(C)c(C#N)c1=O` [Example 2], the figure is 18.6 weight percent; as for `C=C(C)C(=O)OCCn1c(O)c(/N=N/c2ccccc2C(=O)OCC(CC)CCCC)c(C)c(C#N)c1=O` (stereo not shown) [Example 3], 33.3 weight percent; as for `C=C(C)C(=O)OCCn1c(O)c(/N=N/c2ccccc2C(=O)OCCOCC)c(C)c(C#N)c1=O` [Example 4], 35.5 weight percent.
As for `C=C(C)c1cccc(C(C)(C)NC(=O)OCCn2c(O)c(/N=N/c3ccc(C(=O)OC)cc3)c(C)c(C#N)c2=O)c1` [Example C-1], the “solubility in toluene relative to compounds of similar structure (in words)” value was “much lower” and the “WPS (weight percent solubility in toluene)” value was found to be 8.8 weight percent.
The corresponding values for `C=C(C)c1cccc(C(C)(C)NC(=O)OCCn2c(O)c(/N=N/c3ccccc3C(=O)OC)c(C)c(C#N)c2=O)c1` [Example C-2] are “much lower” and 2.3 weight percent.
On the same counts, the results for `C=C(C)C(=O)OCCn1c(O)c(/N=N/c2ccccc2C(=O)OC)c(C)c(C#N)c1=O` [Example C-3] are “much lower” and 11.1 weight percent.

For the origin of these results see patent US20070207331A1, “Azo compounds and coating compositions containing the azo compounds” (priority 2006, published 2007).
